Source: the kinase profiling compilation of Christmann-Franck et al. (2016)

What was measured:
Test in all cases: KINOMEscan competition binding
MAP3K7 (human) = MAP3K7 (human) (UniProt O43318)
[1] = biological target: FLT3 (human), P36888 [N841I]
CSF1R (human) = CSF1R (human) (UniProt P07333)
CLK2 (human) = CLK2 (human) (UniProt P49760)
RIPK2 (human) = RIPK2 (human) (UniProt O43353)
MERTK (human) = MERTK (human) (UniProt Q12866)
LYN (human) = LYN (human) (UniProt P07948)
[2] = biological target: JAK1 JH1 catalytic (human) (UniProt P23458)
JAK1 JH1 catalytic (human), sequence (P23458 whole entry, looked up): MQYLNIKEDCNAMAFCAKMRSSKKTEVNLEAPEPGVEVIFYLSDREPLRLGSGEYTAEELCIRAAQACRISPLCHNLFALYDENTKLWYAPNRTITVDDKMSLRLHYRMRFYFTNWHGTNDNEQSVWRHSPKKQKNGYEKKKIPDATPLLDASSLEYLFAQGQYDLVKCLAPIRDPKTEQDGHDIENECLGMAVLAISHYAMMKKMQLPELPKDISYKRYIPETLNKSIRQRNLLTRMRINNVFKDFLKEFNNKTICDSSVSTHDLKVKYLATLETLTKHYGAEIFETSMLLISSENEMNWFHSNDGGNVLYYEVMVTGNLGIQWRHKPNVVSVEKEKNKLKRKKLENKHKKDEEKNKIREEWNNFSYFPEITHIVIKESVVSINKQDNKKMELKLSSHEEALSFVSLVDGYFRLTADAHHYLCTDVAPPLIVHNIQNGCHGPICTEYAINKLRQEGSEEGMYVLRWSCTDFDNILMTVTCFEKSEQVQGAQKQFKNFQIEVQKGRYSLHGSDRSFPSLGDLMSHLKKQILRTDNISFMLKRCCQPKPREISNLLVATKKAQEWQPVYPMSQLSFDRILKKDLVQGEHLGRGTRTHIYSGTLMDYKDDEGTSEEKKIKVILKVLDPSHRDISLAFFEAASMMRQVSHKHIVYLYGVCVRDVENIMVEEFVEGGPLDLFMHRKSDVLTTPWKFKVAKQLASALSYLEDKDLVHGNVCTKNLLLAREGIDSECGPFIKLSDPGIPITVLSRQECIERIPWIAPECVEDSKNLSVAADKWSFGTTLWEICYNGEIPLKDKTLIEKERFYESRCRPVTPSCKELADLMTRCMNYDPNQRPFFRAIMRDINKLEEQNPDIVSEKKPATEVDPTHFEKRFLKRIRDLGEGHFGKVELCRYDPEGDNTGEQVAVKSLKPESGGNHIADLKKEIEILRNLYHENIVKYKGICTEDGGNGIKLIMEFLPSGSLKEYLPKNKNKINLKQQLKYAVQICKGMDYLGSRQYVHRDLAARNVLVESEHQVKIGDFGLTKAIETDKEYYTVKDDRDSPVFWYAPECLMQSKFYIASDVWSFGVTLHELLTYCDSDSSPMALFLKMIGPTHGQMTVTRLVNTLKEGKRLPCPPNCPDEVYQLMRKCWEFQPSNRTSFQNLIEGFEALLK

STK36 (human) = STK36 (human) (UniProt Q9NRP7)
FRK (human) = FRK (human) (UniProt P42685)
STK35 (human) = STK35 (human) (UniProt Q8TDR2)
SRMS (human) = SRMS (human) (UniProt Q9H3Y6)
ROS1 (human) = ROS1 (human) (UniProt P08922)
GSK3B (human) = GSK3B (human) (UniProt P49841)
MYLK (human) = MYLK (human) (UniProt Q15746)
CDK19 (human) = CDK19 (human) (UniProt Q9BWU1)
[3] = biological target: FGFR3 (human), P22607 [G697C]
MAP2K4 (human) = MAP2K4 (human) (UniProt P45985)
MAP2K4 (human), sequence (P45985 whole entry, looked up): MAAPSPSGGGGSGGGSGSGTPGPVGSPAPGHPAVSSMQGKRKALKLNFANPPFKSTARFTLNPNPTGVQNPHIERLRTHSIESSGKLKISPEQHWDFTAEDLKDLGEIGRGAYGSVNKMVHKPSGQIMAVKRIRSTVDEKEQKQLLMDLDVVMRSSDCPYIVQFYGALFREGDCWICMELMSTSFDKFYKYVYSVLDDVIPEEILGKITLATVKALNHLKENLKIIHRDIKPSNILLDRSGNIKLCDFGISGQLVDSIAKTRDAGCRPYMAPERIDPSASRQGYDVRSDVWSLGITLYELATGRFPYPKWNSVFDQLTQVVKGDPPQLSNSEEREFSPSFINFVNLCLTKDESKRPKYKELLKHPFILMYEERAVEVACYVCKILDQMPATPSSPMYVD

MAPK8 (human) = MAPK8 (human) (UniProt P45983)
CDK7 (human) = CDK7 (human) (UniProt P50613)
CDK7 (human), sequence (P50613 whole entry, looked up): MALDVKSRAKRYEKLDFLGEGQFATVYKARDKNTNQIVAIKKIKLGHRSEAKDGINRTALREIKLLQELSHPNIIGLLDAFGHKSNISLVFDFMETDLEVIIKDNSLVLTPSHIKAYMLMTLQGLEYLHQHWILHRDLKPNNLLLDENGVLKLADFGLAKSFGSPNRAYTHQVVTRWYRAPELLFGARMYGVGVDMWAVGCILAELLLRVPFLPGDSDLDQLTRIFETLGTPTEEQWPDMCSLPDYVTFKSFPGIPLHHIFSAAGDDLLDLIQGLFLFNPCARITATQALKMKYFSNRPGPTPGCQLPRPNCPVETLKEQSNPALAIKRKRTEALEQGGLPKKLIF

[4] = biological target: PIK3CA (human), P42336 [C420R]
GAK (human) = GAK (human) (UniProt O14976)
MAP4K2 (human) = MAP4K2 (human) (UniProt Q12851)
CDK17 (human) = CDK17 (human) (UniProt Q00537)
MST1R (human) = MST1R (human) (UniProt Q04912)
MAP3K12 (human) = MAP3K12 (human) (UniProt Q12852)
TIE1 (human) = TIE1 (human) (UniProt P35590)
TIE1 (human), sequence (P35590 whole entry, looked up): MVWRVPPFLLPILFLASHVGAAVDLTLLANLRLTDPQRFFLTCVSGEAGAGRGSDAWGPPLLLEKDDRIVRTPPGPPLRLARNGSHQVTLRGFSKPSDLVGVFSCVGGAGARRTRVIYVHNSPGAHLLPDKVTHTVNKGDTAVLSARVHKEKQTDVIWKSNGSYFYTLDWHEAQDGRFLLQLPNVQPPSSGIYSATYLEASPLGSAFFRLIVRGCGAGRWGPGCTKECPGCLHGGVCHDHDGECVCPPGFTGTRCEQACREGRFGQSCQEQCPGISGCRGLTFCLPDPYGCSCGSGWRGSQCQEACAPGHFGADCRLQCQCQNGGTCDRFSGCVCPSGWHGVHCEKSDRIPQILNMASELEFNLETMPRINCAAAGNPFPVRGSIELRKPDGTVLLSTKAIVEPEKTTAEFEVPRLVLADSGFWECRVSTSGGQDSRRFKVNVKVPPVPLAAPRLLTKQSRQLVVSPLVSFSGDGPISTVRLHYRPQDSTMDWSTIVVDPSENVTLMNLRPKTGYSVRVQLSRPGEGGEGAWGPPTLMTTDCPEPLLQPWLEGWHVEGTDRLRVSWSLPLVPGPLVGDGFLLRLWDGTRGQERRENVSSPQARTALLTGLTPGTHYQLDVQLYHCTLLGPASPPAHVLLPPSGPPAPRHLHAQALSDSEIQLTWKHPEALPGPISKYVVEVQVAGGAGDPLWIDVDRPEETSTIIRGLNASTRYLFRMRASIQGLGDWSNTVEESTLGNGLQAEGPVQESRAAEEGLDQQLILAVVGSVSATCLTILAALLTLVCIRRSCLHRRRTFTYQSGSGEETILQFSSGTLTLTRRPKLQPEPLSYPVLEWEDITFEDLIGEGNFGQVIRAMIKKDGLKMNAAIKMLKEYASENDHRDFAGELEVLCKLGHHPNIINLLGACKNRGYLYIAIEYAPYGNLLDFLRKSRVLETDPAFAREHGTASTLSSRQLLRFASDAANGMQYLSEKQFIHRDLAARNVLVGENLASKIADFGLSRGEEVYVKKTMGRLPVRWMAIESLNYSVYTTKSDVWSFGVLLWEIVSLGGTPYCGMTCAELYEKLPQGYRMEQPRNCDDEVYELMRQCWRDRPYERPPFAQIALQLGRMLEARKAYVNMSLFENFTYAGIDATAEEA

PIK3CG (human) = PIK3CG (human) (UniProt P48736)
SLK (human) = SLK (human) (UniProt Q9H2G2)
EPHB2 (human) = EPHB2 (human) (UniProt P29323)
[5] = biological target: FLT3 (human), P36888 [ITD]
BTK (human) = BTK (human) (UniProt Q06187)
BTK (human), sequence (Q06187 whole entry, looked up): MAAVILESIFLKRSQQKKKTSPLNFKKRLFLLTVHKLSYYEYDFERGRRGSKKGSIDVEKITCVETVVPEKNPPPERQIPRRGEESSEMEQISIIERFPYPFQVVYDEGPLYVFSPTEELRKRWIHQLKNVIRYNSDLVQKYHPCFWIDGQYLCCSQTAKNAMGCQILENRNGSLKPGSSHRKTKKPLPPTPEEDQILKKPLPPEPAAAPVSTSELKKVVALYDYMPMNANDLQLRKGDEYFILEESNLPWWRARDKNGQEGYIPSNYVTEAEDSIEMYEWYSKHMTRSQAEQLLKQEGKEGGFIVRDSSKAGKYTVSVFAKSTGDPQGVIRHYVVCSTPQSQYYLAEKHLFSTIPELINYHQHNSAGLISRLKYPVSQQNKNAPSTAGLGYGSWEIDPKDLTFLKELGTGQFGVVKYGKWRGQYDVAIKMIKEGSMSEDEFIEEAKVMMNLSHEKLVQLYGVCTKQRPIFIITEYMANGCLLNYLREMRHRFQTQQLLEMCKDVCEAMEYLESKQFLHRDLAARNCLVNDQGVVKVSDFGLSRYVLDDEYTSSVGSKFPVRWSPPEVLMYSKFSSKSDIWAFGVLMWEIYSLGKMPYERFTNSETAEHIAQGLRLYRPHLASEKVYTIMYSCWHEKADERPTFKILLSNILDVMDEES

CSK (human) = CSK (human) (UniProt P41240)
LTK (human) = LTK (human) (UniProt P29376)
SYK (human) = SYK (human) (UniProt P43405)
TYRO3 (human) = TYRO3 (human) (UniProt Q06418)
SIK1 (human) = SIK1 (human) (UniProt P57059)
MAPK12 (human) = MAPK12 (human) (UniProt P53778)
MAPK12 (human), sequence (P53778 whole entry, looked up): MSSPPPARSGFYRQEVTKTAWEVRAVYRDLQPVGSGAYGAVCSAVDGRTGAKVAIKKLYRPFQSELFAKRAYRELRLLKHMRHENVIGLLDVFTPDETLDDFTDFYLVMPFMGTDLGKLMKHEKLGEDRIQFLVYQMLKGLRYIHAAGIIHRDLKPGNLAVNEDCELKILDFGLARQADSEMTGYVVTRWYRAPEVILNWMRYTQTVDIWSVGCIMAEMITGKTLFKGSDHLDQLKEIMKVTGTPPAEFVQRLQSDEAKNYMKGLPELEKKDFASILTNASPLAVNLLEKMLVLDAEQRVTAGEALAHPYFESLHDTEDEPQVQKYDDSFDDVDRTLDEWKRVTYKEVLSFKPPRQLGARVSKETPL

MYLK2 (human) = MYLK2 (human) (UniProt Q9H1R3)
CIT (human) = CIT (human) (UniProt O14578)
MAP4K3 (human) = MAP4K3 (human) (UniProt Q8IVH8)

MERTK (human), sequence (Q12866 whole entry, looked up): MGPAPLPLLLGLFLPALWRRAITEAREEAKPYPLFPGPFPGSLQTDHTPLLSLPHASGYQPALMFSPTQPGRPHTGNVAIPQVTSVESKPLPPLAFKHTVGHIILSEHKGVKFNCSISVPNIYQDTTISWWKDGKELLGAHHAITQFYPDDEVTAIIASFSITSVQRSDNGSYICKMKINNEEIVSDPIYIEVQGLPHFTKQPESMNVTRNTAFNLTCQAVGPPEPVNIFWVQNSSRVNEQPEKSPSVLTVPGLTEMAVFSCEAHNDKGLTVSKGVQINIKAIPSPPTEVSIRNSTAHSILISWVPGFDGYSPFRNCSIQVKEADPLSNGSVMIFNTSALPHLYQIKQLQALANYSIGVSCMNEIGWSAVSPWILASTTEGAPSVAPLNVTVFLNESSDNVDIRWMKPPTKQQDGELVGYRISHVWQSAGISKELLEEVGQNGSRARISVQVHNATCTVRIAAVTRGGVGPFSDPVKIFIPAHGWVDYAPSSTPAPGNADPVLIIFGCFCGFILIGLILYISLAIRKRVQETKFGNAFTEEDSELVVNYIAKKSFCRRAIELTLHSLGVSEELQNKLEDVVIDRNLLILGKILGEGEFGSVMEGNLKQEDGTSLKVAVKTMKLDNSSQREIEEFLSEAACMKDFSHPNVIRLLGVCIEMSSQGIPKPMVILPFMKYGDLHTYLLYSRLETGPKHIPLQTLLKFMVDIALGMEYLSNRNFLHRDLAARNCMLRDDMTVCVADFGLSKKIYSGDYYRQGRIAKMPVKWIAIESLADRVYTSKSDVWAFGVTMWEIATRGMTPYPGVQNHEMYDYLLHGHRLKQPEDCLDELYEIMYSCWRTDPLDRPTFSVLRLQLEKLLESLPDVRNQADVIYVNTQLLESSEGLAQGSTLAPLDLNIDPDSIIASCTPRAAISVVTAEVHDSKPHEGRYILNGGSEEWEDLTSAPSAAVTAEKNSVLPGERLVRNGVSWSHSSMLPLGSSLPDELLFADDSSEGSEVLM

`COc1cc2ncnc(Oc3cccc(NC(=O)Nc4cc(C(C)(C)C(F)(F)F)on4)c3)c2cc1OC` gave a Kd (MAP3K7 (human)) of 0.083 µM, a Kd [1] of 0.02 µM and a Kd (CSF1R (human)) of 0.0086 µM. It also gave a Kd (CLK2 (human)) of 21 µM, a Kd (RIPK2 (human)) of 0.016 µM and a Kd (MERTK (human)) of 1.3 µM. It also gave a Kd (LYN (human)) of 0.002 µM, a Kd [2] of 29 µM and a Kd (STK36 (human)) of 4.7 µM. The Kd (FRK (human)) was 0.0096 µM, the Kd (STK35 (human)) was 0.47 µM and the Kd (SRMS (human)) was 3 µM. It also gave a Kd (ROS1 (human)) of 2.5 µM, a Kd (GSK3B (human)) of 29 µM and a Kd (MYLK (human)) of 27 µM. For the same compound, the Kd (CDK19 (human)) was 0.94 µM, the Kd [3] was 3.1 µM and the Kd (MAP2K4 (human)) was 18 µM. The Kd (MAPK8 (human)) was 0.1 µM, the Kd (CDK7 (human)) was 0.52 µM and the Kd [4] was 30 µM. For the same compound, the Kd (GAK (human)) was 2.3 µM, the Kd (MAP4K2 (human)) was 0.98 µM and the Kd (CDK17 (human)) was 0.63 µM. The Kd (MST1R (human)) was 6.4 µM, the Kd (MAP3K12 (human)) was 35 µM and the Kd (TIE1 (human)) was 0.024 µM. The Kd (PIK3CG (human)) was 30 µM, the Kd (SLK (human)) was 0.02 µM and the Kd (EPHB2 (human)) was 0.04 µM. The Kd [5] was 0.022 µM, the Kd (BTK (human)) was 9 µM and the Kd (CSK (human)) was 0.7 µM. It also gave a Kd (LTK (human)) of 1.2 µM, a Kd (SYK (human)) of 0.26 µM and a Kd (TYRO3 (human)) of 1.5 µM. For the same compound, the Kd (SIK1 (human)) was 1.8 µM, the Kd (MAPK12 (human)) was 1.3 µM and the Kd (MYLK2 (human)) was 7.5 µM. It also gave a Kd (CIT (human)) of 0.21 µM and a Kd (MAP4K3 (human)) of 2.3 µM.
